Assays:
Staphylococcus aureus [1] = assay: Antibacterial activity against Staphylococcus aureus CCM 451608 assessed as reduction in bacterial growth inhibition incubated for 24 hrs by microbroth dilution method; type: functional
Staphylococcus aureus [2] = assay: Antibacterial activity against Staphylococcus aureus CCM 451608 assessed as reduction in bacterial growth inhibition incubated for 48 hrs by microbroth dilution method; type: functional
Escherichia coli [3] = assay: Antibacterial activity against Escherichia coli assessed as bacterial growth inhibition incubated for 72 hrs by microdilution method; type: functional
Pseudomonas aeruginosa [4] = assay: Antibacterial activity against Pseudomonas aeruginosa assessed as bacterial growth inhibition incubated for 72 hrs by microdilution method; type: functional
Enterococcus faecalis [5] = assay: Antibacterial activity against Enterococcus faecalis assessed as bacterial growth inhibition incubated for 72 hrs by microdilution method; type: functional
Staphylococcus aureus [6] = assay: Antibacterial activity against Staphylococcus aureus assessed as bacterial growth inhibition incubated for 72 hrs by microdilution assay; type: functional, organism-based; details: for MIC: Staphylococcus aureus, time 72 hrs
Staphylococcus aureus [7] = assay: Antibiofilm activity against methicillin-resistant Staphylococcus aureus assessed as inhibition of biofilm formation; type: functional
Bacillus cereus = assay: Antibacterial activity against Bacillus cereus assessed as reduction in microbial growth after 18 hrs by MTT based broth dilution method; type: functional
Staphylococcus aureus [8] = assay: Antibacterial activity against methicillin-resistant Staphylococcus aureus assessed as bacterial growth inhibition; type: functional
Staphylococcus aureus [9] = assay: Antibacterial activity against methicillin- resistant Staphylococcus aureus assessed as bacterial growth inhibition incubated for 24 hrs; type: functional
[10] = system: Mycobacterium tuberculosis; assay: Antibacterial activity against Mycobacterium tuberculosis Erdman assessed as bacterial growth inhibition; type: functional
[11] = system: Mycobacterium tuberculosis; assay: Antimycobacterial activity against Mycobacterium tuberculosis assessed as reduction in mycobacterial growth; type: functional
Staphylococcus aureus [12] = assay: Antibacterial activity against Staphylococcus aureus assessed as bacterial growth inhibition measured after 24 hrs by micro-broth dilution method; type: functional
Escherichia coli [13] = assay: Antibacterial activity against Escherichia coli assessed as reduction bacterial cell growth; type: functional
Enterococcus faecalis [14] = assay: Antibacterial activity against Enterococcus faecalis assessed as reduction in bacterial cell growth; type: functional
Pseudomonas aeruginosa [15] = assay: Antibacterial activity against Pseudomonas aeruginosa assessed as inhibition of bacterial cell growth; type: functional
Staphylococcus aureus [16] = assay: Antimicrobial activity against Staphylococcus aureus assessed as reduction in bacterial growth; type: functional
[17] = system: Stenotrophomonas maltophilia; assay: Antibacterial activity against Stenotrophomonas maltophilia assessed as inhibition of bacterial growth; type: functional
Staphylococcus aureus [18] = assay: Antibacterial activity against Staphylococcus aureus ATCC 29213 assessed as bacterial growth inhibition incubated for 24 hrs by broth dilution method; type: functional
Staphylococcus aureus [19] = assay: Antibacterial activity against Staphylococcus aureus assessed as bacterial growth inhibition; type: functional
[20] = system: Staphylococcus epidermidis; assay: Antibacterial activity against methicillin-resistant Staphylococcus epidermidis assessed as bacterial growth inhibition measured after 16 hrs by microplate reader assay; type: functional
Enterococcus faecium = assay: Antibacterial activity against vancomycin-resistant Enterococcus faecium 700221 assessed as reduction in bacterial growth inhibition measured after 16 hrs by microplate reader assay; type: functional
Staphylococcus aureus [21] = assay: Antibacterial activity against methicillin-resistant Staphylococcus aureus assessed as bacterial growth inhibition measured after 16 hrs by microplate reader assay; type: functional
Pseudomonas aeruginosa [22] = assay: Antibacterial activity against Pseudomonas aeruginosa assessed as reduction in bacterial cell growth; type: functional
Acinetobacter baumannii = assay: Antibacterial activity against Acinetobacter baumannii assessed as inhibition of bacterial cell growth; type: functional
Klebsiella pneumoniae = assay: Antibacterial activity against Klebsiella pneumoniae assessed as reduction in bacterial growth; type: functional
[23] = Escherichia coli, 72 h, read-out: MIC
[24] = Pseudomonas aeruginosa, 72 h, read-out: MIC

Molecule CCCCCCCCCCCCCCCC[n+]1ccc(C=NO)cc1 has an MIC (Staphylococcus aureus [1]) of 0.98 µM and an MIC (Staphylococcus aureus [2]) of 0.98 µM.

With CCCCCCCCCCCC[N+](C)(C)CC[N+](C)(C)CCCCCCCCCCCC the MIC (Escherichia coli [3]; [23]) was 2 µM, the MIC (Pseudomonas aeruginosa [4]; [24]) was 4 µM and the MIC (Enterococcus faecalis [5]) was 1 µM. The MIC (Staphylococcus aureus [6]) was 1 µM.

With CCCCCCCCCCCC[N+](C)(C)CCCCC[N+](C)(C)CCCCCCCCCCCC the MIC (Escherichia coli [3]; [23]) was 1 µM, the MIC (Pseudomonas aeruginosa [4]; [24]) was 4 µM and the MIC (Enterococcus faecalis [5]) was 1 µM. The MIC (Staphylococcus aureus [6]) was 1 µM.

With CCCCCCCCCCCC[N+](C)(C)CCN(C)CC[N+](C)(C)CCCCCCCCCCCC the MIC (Escherichia coli [3]; [23]) was 1 µM, the MIC (Pseudomonas aeruginosa [4]; [24]) was 4 µM and the MIC (Enterococcus faecalis [5]) was 2 µM. The MIC (Staphylococcus aureus [6]) was 1 µM and the MIC (Staphylococcus aureus [7]) was 1 µM.

CCCCCCCCCCCC[N+](C)(C)CCC[N+](C)(C)CCCCCCCCCCCC was tested, and the MIC (Escherichia coli [3]; [23]) was 1 µM, the MIC (Pseudomonas aeruginosa [4]; [24]) was 4 µM and the MIC (Enterococcus faecalis [5]) was 1 µM. The MIC (Staphylococcus aureus [6]) was 2 µM.

CCCCCCCC[N+](C)(C)CC(=O)Nc1ccc(C(=O)/C=C/c2ccccc2F)cc1 showed an MIC (Bacillus cereus) of 2 µM.

CCCCCCCCCCCC[N+](C)(C)CCCN(C)C was tested, and the MIC (Staphylococcus aureus [8]) was 8 µM and the MIC (Staphylococcus aureus [9]) was 4 µM.

Work on CCCCCCc1ccc[n+](CCOC2C3CC4CC(C3)CC2C4)c1.CS(=O)(=O)[O-] (stereo unspecified) yielded an MIC [10] of 1.6 µg/mL and an MIC [11] of 3.1 µg/mL.

O=C(C[n+]1cc(-c2ccc(Cl)c(Cl)c2)n2c1CCC2)Nc1ccc(Oc2ccccc2)cc1 was tested, and the MIC (Staphylococcus aureus [12]) was 4 µM.

CCCCCCCCCCCC[N+](C)(C)CCCCCCCCCCCC was tested, and the MIC (Escherichia coli [3]; [23]) was 8 µM, the MIC (Pseudomonas aeruginosa [4]; [24]) was 32 µM and the MIC (Enterococcus faecalis [5]) was 1 µM. It also gave an MIC (Staphylococcus aureus [6]) of 1 µM.

In the case of CCCCCCCCCC[n+]1cccc(CN(Cc2ccc[n+](CCCCCCCCCC)c2)Cc2ccc[n+](CCCCCCCCCC)c2)c1, the MIC (Staphylococcus aureus [8]) is reported as 0.5 µM, the MIC (Escherichia coli [13]) is reported as 1 µM and the MIC (Enterococcus faecalis [14]) is reported as 1 µM. It also gave an MIC (Pseudomonas aeruginosa [15]) of 2 µM and an MIC (Staphylococcus aureus [16]) of 0.5 µM.

Molecule CCCCCC[N+](C)(C)CCOc1ccc(OCC[N+](C)(C)CCCCCC)cc1.[Br-].[Br-] has an MIC [17] of 64 µg/mL, an MIC (Enterococcus faecalis [14]) of 128 µg/mL and an MIC (Staphylococcus aureus [16]) of 32 µg/mL.

For CCCCCCCCCCCCOC(=O)C[N+](C)(C)CCC[N+](C)(C)CC(=O)OCCCCCCCCCCCC.[Br-].[Br-], the MIC (Escherichia coli [3]) was 20 µM, the MIC (Pseudomonas aeruginosa [4]) was 300 µM and the IC50 (Staphylococcus aureus [6]) was 20 µM.

With CCCC1OCc2c(CO)c(C[N+](C)(C/C=C/C#CC(C)(C)C)Cc3cccc4ccccc34)nc(C)c2O1.[Br-] (stereo unspecified) the MIC (Staphylococcus aureus [18]) was 4 µg/mL.

Molecule CCCCCCCC[N+](C)(C)CCOc1ccc(OCC[N+](C)(C)CCCCCCCC)cc1.[Br-].[Br-] has an MIC [17] of 1 µg/mL, an MIC (Enterococcus faecalis [14]) of 4 µg/mL and an MIC (Staphylococcus aureus [16]) of 0.5 µg/mL.

CCCCCCCCCC[N+](C)(C)Cc1ccc(C[N+](C)(C)CCCCCCCCCC)cc1 gave an MIC (Staphylococcus aureus [12]) of 6.1 µM.

Work on CCCCCCCCCCCC[N+](C)(C)c1ccc(C(c2ccc(N(C)C)cc2)c2ccc(N(C)C)cc2)cc1 yielded an MIC (Staphylococcus aureus [16]) of 0.25 µM.

With CCCCCCCCCCCCCCCCCC[N+](CC)(CC)c1ccc(C(c2ccc([N+](C)(CC)CC)cc2)c2ccc([N+](C)(CC)CC)cc2)cc1 the MIC (Staphylococcus aureus [8]) was 0.5 µM, the MIC (Escherichia coli [13]) was 1 µM and the MIC (Enterococcus faecalis [14]) was 1 µM. It also gave an MIC (Pseudomonas aeruginosa [15]) of 8 µM and an MIC (Staphylococcus aureus [16]) of 1 µM.

CCCCCCCCS(=O)(=O)Nc1ccc(-c2ccc(Cl)cc2)cc1C(=O)C(=O)NCCC[N+](C)(C)C.[I-] gave an MIC (Staphylococcus aureus [19]) of 8 µg/mL.

In the case of CCCCCCCCCCCCCCCCn1cc[n+](Cc2cccc(F)c2)c1C, the MIC [20] is reported as 1.17 µM, the MIC (Enterococcus faecium) is reported as 1.17 µM and the MIC (Staphylococcus aureus [21]) is reported as 1.17 µM.

CCCCCCCCS(=O)(=O)Nc1ccc(-c2ccc(-c3ccccc3)cc2)cc1C(=O)C(=O)NCCC[N+](C)(C)C showed an MIC (Staphylococcus aureus [12]) of 4 µM.

Molecule CCCCCCCCC[n+]1ccc(Oc2ccc(-c3ccc(Oc4cc[n+](CCCCCCCCC)cc4)cc3)cc2)cc1.[Br-].[Br-] has an MIC (Pseudomonas aeruginosa [22]) of under 0.25 µg/mL, an MIC (Staphylococcus aureus [8]) of under 0.25 µg/mL and an MIC (Acinetobacter baumannii) of under 0.25 µg/mL. It also gave an MIC (Escherichia coli [13]) of under 0.25 µg/mL and an MIC (Klebsiella pneumoniae) of under 0.25 µg/mL.

Source: ChEMBL document CHEMBL5331054, “Antibacterial quaternary ammonium agents: Chemical diversity and biological mechanism” (Eur J Med Chem, 2022)
